ChEMBL document CHEMBL4359920 (Eur J Med Chem, 2019)

Key:
[1] = system: HCT-116; assay: Antiproliferative activity against human HCT116 cells assessed as reduction in cell viability after 72 hrs by MTT assay; type: functional, cell-based; settings: HCT-116, 72 h
[2] = system: A549; assay: Antiproliferative activity against human A549 cells assessed as reduction in cell viability after 72 hrs by MTT assay; type: functional, cell-based; settings: A549, 72 h
[3] = system: MDA-MB-231; assay: Antiproliferative activity against human MDA-MB-231 cells assessed as reduction in cell viability after 72 hrs by MTT assay; type: functional, cell-based; settings: MDA-MB-231, 72 h
[4] = system: SK-OV-3; assay: Antiproliferative activity against human SKOV3 cells assessed as reduction in cell viability after 72 hrs by MTT assay; type: functional, cell-based; settings: SK-OV-3, 72 h
[5] = target: T1, Protein deacetylase HDAC6 (Homo sapiens, UniProt Q9UBN7); assay: Inhibition of recombinant human HDAC6 using Ac-peptide-AMC as substrate preincubated for 15 mins followed by substrate addition and measured after 60 mins by fluorescence based assay; settings: for inhibition (INH): human, 1 h
T1 sequence (Q9UBN7 whole entry): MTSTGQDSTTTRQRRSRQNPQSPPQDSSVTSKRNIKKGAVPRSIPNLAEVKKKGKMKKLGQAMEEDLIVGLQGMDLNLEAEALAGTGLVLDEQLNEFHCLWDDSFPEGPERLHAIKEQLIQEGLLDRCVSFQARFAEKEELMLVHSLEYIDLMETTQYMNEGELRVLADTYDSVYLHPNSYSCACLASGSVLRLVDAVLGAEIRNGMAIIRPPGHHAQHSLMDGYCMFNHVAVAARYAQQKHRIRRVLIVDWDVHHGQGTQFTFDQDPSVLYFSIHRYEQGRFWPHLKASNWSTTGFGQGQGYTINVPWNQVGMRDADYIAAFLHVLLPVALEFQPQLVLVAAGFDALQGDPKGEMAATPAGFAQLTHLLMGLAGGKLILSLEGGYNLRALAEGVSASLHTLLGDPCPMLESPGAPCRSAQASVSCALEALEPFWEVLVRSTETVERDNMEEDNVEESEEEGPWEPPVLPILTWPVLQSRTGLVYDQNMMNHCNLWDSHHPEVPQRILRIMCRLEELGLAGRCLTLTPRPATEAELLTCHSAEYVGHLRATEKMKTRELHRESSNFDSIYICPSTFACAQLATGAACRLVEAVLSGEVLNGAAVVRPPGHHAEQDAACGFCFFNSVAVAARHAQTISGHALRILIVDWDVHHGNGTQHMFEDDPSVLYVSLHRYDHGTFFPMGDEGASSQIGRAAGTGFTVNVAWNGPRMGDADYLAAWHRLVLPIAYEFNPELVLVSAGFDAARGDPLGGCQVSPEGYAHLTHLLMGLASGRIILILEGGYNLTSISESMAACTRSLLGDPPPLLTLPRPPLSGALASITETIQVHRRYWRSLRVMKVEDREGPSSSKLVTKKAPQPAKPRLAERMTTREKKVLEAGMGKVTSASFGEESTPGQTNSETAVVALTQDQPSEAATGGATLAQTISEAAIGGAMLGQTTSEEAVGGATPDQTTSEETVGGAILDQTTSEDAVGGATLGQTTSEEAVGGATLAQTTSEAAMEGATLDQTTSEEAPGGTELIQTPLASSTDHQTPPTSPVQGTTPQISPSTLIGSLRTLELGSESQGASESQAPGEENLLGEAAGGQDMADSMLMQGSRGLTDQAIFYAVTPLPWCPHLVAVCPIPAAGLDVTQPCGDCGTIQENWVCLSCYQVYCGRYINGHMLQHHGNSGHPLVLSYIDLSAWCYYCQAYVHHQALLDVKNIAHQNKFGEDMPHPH

[6] = target: T2, Histone deacetylase 8 (Homo sapiens, UniProt Q9BY41); assay: (§1) Inhibition of full length C-terminal His-tagged human HDAC8 expressed in baculovirus infected Sf9 cells using Ac-peptide-AMC as substrate preincubated for 15 mins followed by substrate addition and measured after 240 mins by fluorescence based assay
T2 sequence (Q9BY41 whole entry): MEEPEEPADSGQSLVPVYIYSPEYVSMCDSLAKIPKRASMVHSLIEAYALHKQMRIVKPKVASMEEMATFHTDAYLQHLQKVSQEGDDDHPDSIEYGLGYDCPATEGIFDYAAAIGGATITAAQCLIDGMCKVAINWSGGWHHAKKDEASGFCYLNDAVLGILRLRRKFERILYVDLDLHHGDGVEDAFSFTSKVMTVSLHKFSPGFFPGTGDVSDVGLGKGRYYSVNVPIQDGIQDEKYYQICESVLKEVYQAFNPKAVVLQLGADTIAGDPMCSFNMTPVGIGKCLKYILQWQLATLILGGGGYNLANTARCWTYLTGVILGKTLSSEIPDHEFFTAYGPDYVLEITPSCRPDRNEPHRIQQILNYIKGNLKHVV

[7] = target: Histone deacetylase 3/Nuclear receptor corepressor 2 (HDAC3/NCoR2) (Homo sapiens, UniProt O15379); assay: as §1, with “of human recombinant” for “of”, “HDAC3 (1 to 428 residues)/N-terminal GST-tagged NCOR2 (395 to 489 residues)” for “human HDAC8”, “60” for “240”
[8] = target: Histone deacetylase 2 (Homo sapiens, UniProt Q92769); assay: biochemical; type: cell-based, Sf9
Description: Inhibition of recombinant full length human HDAC2 expressed in baculovirus infected Sf9 cells using Ac-peptide-AMC as substrate preincubated for 15 mins followed by substrate addition and measured after 60 mins by fluorescence based assay

[9] = target: Histone deacetylase 1 (Homo sapiens, UniProt Q13547); assay: Inhibition of recombinant full length C-terminal FLAG/His-tagged human HDAC1 expressed in baculovirus infected Sf9 cells using Ac-peptide-AMC as substrate preincubated for 15 mins followed by substrate addition and measured after 60 mins by fluorescence based assay
[10] = target: Histone deacetylase (Homo sapiens) (UniProt Q13547+O15379+Q9UBN7+Q92769+Q9UQL6+Q8WUI4+Q9BY41+Q96DB2+P56524+Q9UKV0+Q969S8); assay: Inhibition of HDAC in human HCT116 cells assessed as increase in histone H3 acetylation after 24 hrs by Western blot analysis; type: cell-based
[11] = target: T1, Protein deacetylase HDAC6; assay: Inhibition of HDAC6 in human HCT116 cells assessed as alpha tubulin acetylation at 0.1 to 10000 nM after 24 hrs by Western blot analysis; type: cell-based; settings: 10 µM
[12] = species on record: Homo sapiens; assay: Selectivity ratio of IC50 for inhibition of human recombinant full length C-terminal His-tagged HDAC3 (1 to 428 residues)/N-terminal GST-tagged NCOR2 (395 to 489 residues) expressed in baculovirus infected Sf9 cells to IC50 for inhibition recombinant full length C-terminal FLAG/His-tagged human HDAC1 expressed in baculovirus infected Sf9 cells
[13] = species on record: Homo sapiens; assay: Selectivity ratio of IC50 for inhibition of recombinant full length human HDAC2 expressed in baculovirus infected Sf9 cells to IC50 for inhibition of recombinant full length C-terminal FLAG/His-tagged human HDAC1 expressed in baculovirus infected Sf9 cells

Histone deacetylase 1, sequence (Q13547 whole entry): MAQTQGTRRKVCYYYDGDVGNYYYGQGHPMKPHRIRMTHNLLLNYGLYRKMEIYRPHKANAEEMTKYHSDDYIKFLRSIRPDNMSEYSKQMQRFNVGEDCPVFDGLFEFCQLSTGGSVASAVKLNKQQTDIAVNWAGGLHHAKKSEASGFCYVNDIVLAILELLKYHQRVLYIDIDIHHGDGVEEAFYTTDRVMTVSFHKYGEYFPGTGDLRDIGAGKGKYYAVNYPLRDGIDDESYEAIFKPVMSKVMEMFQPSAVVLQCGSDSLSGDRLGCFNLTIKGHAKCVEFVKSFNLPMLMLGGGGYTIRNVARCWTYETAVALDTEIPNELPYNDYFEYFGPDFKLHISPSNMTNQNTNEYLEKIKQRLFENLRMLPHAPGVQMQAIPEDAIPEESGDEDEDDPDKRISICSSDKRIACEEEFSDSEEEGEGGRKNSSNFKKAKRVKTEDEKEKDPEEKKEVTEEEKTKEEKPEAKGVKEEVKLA
Histone deacetylase 2, sequence (Q92769 whole entry): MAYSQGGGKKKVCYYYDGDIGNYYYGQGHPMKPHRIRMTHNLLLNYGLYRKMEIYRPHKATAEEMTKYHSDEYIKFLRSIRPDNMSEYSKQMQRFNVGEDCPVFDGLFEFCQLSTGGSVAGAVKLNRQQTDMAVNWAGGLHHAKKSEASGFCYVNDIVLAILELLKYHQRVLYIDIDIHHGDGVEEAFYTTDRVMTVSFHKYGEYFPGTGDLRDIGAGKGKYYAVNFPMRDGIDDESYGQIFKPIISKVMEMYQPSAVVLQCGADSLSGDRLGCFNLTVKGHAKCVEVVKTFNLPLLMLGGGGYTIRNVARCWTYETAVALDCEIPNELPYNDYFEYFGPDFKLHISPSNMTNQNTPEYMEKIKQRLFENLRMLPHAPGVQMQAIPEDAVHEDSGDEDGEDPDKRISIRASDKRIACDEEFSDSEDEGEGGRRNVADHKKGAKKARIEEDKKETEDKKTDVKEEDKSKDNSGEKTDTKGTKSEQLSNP
Histone deacetylase 3/Nuclear receptor corepressor 2 (HDAC3/NCoR2), sequence (O15379 whole entry, the tested form may be a part): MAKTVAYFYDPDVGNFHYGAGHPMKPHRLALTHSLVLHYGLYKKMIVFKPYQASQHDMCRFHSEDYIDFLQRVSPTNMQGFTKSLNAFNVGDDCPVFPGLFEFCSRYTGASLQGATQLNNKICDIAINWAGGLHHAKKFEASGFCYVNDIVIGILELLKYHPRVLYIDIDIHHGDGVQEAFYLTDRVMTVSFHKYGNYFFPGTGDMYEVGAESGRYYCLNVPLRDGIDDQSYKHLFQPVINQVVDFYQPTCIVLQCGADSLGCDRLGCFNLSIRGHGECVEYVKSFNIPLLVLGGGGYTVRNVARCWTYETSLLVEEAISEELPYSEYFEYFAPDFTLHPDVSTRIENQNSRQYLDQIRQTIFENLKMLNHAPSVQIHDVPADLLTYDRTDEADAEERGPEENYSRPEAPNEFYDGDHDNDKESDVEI
Histone deacetylase 3/Nuclear receptor corepressor 2 (HDAC3/NCoR2), sequence (Q9Y618 whole entry, further chain, the tested form may be a part): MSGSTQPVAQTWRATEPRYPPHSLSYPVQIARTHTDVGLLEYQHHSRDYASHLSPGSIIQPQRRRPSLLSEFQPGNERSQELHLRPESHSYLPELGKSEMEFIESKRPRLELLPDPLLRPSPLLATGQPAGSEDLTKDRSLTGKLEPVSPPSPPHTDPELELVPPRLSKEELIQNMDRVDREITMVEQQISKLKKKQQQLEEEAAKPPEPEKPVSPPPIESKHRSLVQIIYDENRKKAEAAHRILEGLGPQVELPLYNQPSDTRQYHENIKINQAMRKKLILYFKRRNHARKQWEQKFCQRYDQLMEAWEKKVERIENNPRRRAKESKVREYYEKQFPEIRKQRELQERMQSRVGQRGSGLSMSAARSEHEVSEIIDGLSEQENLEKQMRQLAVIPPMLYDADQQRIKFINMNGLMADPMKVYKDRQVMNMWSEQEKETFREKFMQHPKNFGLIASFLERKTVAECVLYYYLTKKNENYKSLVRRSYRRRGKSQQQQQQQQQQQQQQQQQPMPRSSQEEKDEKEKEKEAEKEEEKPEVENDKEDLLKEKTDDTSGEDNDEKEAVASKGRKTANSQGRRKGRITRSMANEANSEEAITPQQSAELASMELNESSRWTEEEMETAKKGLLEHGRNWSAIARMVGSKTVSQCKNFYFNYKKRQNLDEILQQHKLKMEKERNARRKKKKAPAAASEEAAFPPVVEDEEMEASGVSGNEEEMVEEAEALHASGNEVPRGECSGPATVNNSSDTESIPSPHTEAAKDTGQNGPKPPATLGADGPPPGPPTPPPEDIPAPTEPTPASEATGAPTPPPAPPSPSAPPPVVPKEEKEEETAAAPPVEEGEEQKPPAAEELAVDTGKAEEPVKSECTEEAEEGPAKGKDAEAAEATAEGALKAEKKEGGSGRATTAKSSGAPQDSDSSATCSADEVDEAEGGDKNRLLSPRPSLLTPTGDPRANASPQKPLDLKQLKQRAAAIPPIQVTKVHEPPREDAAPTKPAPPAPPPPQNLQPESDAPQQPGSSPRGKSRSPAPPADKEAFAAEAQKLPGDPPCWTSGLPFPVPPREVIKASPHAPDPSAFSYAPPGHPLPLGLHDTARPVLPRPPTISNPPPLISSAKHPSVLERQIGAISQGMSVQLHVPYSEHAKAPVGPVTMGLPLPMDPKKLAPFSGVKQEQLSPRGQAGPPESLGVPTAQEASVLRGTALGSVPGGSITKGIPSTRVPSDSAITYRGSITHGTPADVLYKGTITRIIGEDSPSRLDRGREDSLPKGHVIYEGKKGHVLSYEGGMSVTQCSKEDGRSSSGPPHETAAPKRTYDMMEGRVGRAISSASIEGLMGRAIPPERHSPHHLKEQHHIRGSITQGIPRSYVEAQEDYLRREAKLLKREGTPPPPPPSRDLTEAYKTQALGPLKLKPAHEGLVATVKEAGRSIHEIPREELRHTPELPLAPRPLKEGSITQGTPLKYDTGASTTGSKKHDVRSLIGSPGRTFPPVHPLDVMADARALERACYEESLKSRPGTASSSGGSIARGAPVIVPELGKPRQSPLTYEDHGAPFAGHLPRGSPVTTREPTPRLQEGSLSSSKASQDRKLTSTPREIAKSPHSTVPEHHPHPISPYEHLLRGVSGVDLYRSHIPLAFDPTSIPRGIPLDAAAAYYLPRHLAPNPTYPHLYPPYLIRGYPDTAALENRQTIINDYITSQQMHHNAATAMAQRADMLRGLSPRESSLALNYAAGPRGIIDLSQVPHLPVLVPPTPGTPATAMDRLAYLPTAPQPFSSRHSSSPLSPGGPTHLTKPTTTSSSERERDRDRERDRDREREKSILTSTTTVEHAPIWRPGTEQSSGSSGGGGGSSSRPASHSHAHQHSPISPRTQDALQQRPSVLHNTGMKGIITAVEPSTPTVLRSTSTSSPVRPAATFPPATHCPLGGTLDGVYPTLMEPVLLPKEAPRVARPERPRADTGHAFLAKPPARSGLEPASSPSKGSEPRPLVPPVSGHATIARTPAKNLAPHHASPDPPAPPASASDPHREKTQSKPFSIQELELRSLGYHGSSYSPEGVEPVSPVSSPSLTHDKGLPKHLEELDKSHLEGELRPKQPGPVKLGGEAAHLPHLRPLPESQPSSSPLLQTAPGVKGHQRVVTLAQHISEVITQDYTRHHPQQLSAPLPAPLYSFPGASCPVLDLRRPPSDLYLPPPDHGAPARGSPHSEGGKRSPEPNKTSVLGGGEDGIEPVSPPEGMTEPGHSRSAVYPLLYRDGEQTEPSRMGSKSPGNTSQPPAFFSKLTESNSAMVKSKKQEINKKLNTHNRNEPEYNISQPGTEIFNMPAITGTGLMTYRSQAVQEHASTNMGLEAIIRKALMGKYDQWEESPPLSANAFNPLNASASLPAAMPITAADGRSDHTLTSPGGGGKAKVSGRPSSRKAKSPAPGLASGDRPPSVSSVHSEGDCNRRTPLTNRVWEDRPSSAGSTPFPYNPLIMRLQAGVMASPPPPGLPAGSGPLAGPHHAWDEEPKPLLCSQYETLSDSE

Row | IC50 [1] [nM] | IC50 [2] [nM] | IC50 [3] [nM] | IC50 [4] [nM] | inhibition (INH) [5] | IC50 [6] [nM] | IC50 [5] [nM] | IC50 [7] [nM] | IC50 [8] [nM] | IC50 [9] [nM] | Structure (SMILES) | further results
1 | > 10000 | > 10000 | > 10000 | > 10000 | – | – | – | – | – | – | CCCCCCCC(=O)SCC/C=C/[C@H]1NC(=O)[C@H](C(C)C)NC(=O)[C@]2(C)CSC(=N2)c2csc(n2)CNC(=O)C1(F)F | –
2 | 6620 | > 10000 | > 10000 | > 10000 | – | – | – | – | – | – | CCCCCCCC(=O)SCC/C=C(\F)[C@@H]1CC(=O)NCc2nc(cs2)C2=N[C@@](C)(CS2)C(=O)N[C@@H](C(C)C)C(=O)N1 | –
3 | – | – | – | – | Dose-dependent effect | 0.41 | 19.7 | 3.2 | 2.46 | 0.46 | CC(C)[C@@H]1NC(=O)[C@]2(C)CSC(=N2)c2csc(n2)CNC(=O)C[C@@H](/C=C(\F)CCS)OC1=O | –
4 | – | – | – | – | Dose-dependent effect | 378 | 1830 | 51.4 | 95.5 | 78.5 | CC(C)[C@@H]1NC(=O)[C@]2(C)CSC(=N2)c2csc(n2)CNC(=O)C[C@H](/C(F)=C/CCS)OC1=O | –
5 | – | – | – | – | Dose-dependent effect | 166 | 1410 | 7.43 | 9.25 | 6.31 | CC(C)[C@@H]1NC(=O)[C@]2(C)CSC(=N2)c2csc(n2)CNC(=O)C(F)(F)[C@@H](/C=C/CCS)NC1=O | –
6 | > 10000 | > 10000 | > 10000 | > 10000 | – | – | – | – | – | – | CCCCCCCC(=O)SCC(F)(F)/C=C/[C@@H]1CC(=O)NCc2nc(cs2)C2=N[C@@](C)(CS2)C(=O)N[C@@H](C(C)C)C(=O)O1 | –
7 | – | – | – | – | Dose-dependent effect | 27.1 | 333 | 8.53 | 7.42 | 2.9 | CC(C)[C@@H]1NC(=O)[C@]2(C)CSC(=N2)c2csc(n2)CNC(=O)C[C@@H](/C(F)=C/CCS)NC1=O | –
8 | – | – | – | – | Dose-dependent effect | – | – | – | – | – | CC(C)[C@@H]1NC(=O)[C@]2(C)CSC(=N2)c2csc(n2)CNC(=O)C[C@@H](/C(F)=C/CCS)OC1=O | –
9 | 170 | 170 | 4110 | 260 | – | – | – | – | – | – | CCCCCCCC(=O)SCC/C(F)=C/[C@@H]1CC(=O)NCc2nc(cs2)C2=N[C@@](C)(CS2)C(=O)N[C@@H](C(C)C)C(=O)O1 | inhibition [10]: Dose-dependent effect; inhibition (INH) [11]: Not Active
10 | – | – | – | – | Dose-dependent effect | 44.1 | 898 | 8.21 | 18.5 | 11.9 | CC(C)[C@@H]1NC(=O)[C@]2(C)CSC(=N2)c2csc(n2)CNC(=O)C[C@@H](/C=C/C(F)(F)CS)OC1=O | Ratio IC50 [12]: 79; Ratio IC50 [13]: 79
11 | – | – | – | – | Dose-dependent effect | – | – | – | – | – | O=C(CCCCCCC(=O)Nc1ccccc1)NO [VORINOSTAT] | –

Row | Structure (SMILES) | IC50 [1] [nM] | IC50 [2] [nM] | IC50 [3] [nM] | IC50 [4] [nM] | inhibition (INH) [5] | IC50 [6] [nM] | IC50 [5] [nM] | IC50 [7] [nM] | IC50 [8] [nM] | IC50 [9] [nM] | further results
12 | CC(C)[C@@H]1NC(=O)[C@]2(C)CSC(=N2)c2csc(n2)CNC(=O)C[C@@H](/C=C/CCS)OC1=O | – | – | – | – | Dose-dependent effect | – | – | – | – | – | –
13 | CCCCCCCC(=O)SCC/C=C/[C@@H]1CC(=O)NCc2nc(cs2)C2=N[C@@](C)(CS2)C(=O)N[C@@H](C(C)C)C(=O)O1 [LARGAZOLE] | 44 to 110 | 460 | 4750 | 250 | Dose-dependent effect | – | – | – | – | – | –
14 | CCCCCCCC(=O)SCC/C=C(\F)[C@H]1CC(=O)NCc2nc(cs2)C2=N[C@@](C)(CS2)C(=O)N[C@@H](C(C)C)C(=O)O1 | > 10000 | > 10000 | > 10000 | > 10000 | – | – | – | – | – | – | –
15 | CCCCCCCC(=O)SCC/C=C(\F)[C@@H]1CC(=O)NCc2nc(cs2)C2=N[C@@](C)(CS2)C(=O)N[C@@H](C(C)C)C(=O)O1 | 810 | 520 | 3850 | 240 | Dose-dependent effect | – | > 5000 | 2300 | – | – | –
